Reference: patent publication US4990703A, “Novel tetrahydronaphthalene and indane derivatives” (Hoffmann-La Roche Inc., priority 1989, dated 1991)

Key:
[1] = test system: squamous metaplasia of the vaginal epithelium; assay: Antimetaplastic activity in the rat (hormone-induced squamous metaplasia of the vaginal epithelium); assay type: in vivo, Female Holtzmann rats; conditions: oral; all-trans-retinoic acid = 1; from average effective dosages (Behrens and Karber)
Text: (D) The antimetaplastic activity can also be determined in rats according to the following method. Female Holtzmann rats weighing approximately 100 g are ovarectomized under Thiogenal narcosis after an adaptation period of 8 days and are used in the test after a further 14 days. In each case two animals are placed in a cage with free access to feed which contains approximately 2000 IU of vitamin A determined analytically. Prior to the oral administration of the test compound the animals are treated subcutaneously each day on 6 successive days with 1 μg of estradiol benzoate and 250 μg of testosterone propionate dissolved in 0.1 ml of sesame oil. […] 2 days after the oral administration of the test substance the result of the reaction is again read off on the vaginal epithelium. The area method according to Behrens and Karber is employed to calculate the average effective dosages.

[2] = test system: testosterone-stimulated sebum secretion; assay: Inhibition of sebum production in the rat; assay type: in vivo, rat (castrated male); conditions: 100 μg/rat p.o., daily for 14 days
Procedure: (E) The activity of the compounds I on sebum secretion in rats was determined according to the following procedure. Male rats of approximately 50-60 g body weight were castrated at the age of 21-22 days. One week after this operation the rats were washed in a cleansing solution in order to remove sebum which was excreted prior to the test period. Only the carrier materials used were administered to one group of rats. A further group of rats also simultaneously received 100 μg of testosterone propionate in 0.2 ml of sesame oil per rat and day. To a further group of rats there were administered daily per rat 100 μg of testosterone propionate in 0.2 ml of sesame oil subcutaneously and the test compounds in various dosages in 0.2 ml of propylene glycol orally. The rats were thus-treated for 14 days. On the 15th day the sebum from the skin surface and the pelt was removed by immersing the entire body of the test animals in a determined volume of acetone and bathing therein for 2 minutes. An aliquot of the solvent bath was evaporated and the solid residue was determined gravimetrically. The inhibition of the testosterone-stimulated increase in the serum secretion in comparison to the corresponding values from rats treated only with testosterone propionate was used as the measurement for the activity.

[3] = test system: keratin-filled utriculi of the rhino mouse; assay: Anti-keratinizing activity in the rhino mouse; assay type: in vivo
Text: (A) The antikeratinizing activity can be determined on the rhino mouse model according to the following procedure. The skin of the rhino mouse is characterized by the presence of keratin-filled utriculi of the epidermis and subcutaneous cysts, both of which are derived from hair follicles. The administration of retinoids leads to a hyperproliferation of the epidermis and of the epithelial lining of the utriculi. The thickening of the epidermis and the reduction in the size of the utriculi lead to a normalization of the altered structure of the epithelial layer. The daily topical application of 0.1 ml/cm^2 skin of the rhino mouse of a 3% acetone solution of an active test compound over a period of 3 weeks or the thrice weekly oral administration in arachis oil over a period of weeks leads to a significant proliferation of the epidermis and a striking reduction of the keratin-filled utriculi.

[4] = test system: chemically-induced breast tumours; assay: Prophylaxis of chemically-induced breast tumours (dimethylbenz(a)anthracene); assay type: in vivo, Female Sprague-Dawley rats; conditions: 11 weeks
Procedure: (B) The activity in the prevention of chemically-induced breast tumours can be determined according to the following procedure. Female Sprague-Dawley rats are kept under temperature-controlled and light-controlled conditions, with free access to drinking water and feed. At the age of 50 days 15 mg of dimethylbenz(a)anthracene disolved in arachis oil are administered to each rat by means of a probang. The treatment with the test compounds begins 1 day after the administration of the carcinogen. The body weights of the test animals are recorded and the tumours are palpated weekly and measured with a vernier caliper. The volumes are calculated according to the formula [formula] in which D is the larger diameter of the tumour ellipsoid and d is the smaller diameter of the tumour ellipsoid. After 11 weeks the test is terminated and evaluated. In this test there are used in addition to 30 control animals, which receive exclusively normal feed the following two groups of test animals:
1. 33 rats to which are administered daily 30 mg/kg of test compound mixed with the feed.
2. 36 rats to which are administered daily 90 mg/kg of test compound mixed with the feed.

[5] = test system: transplantable chondrosarcoma of the rat; assay: Activity on transplantable chondrosarcoma of the rat; assay type: in vivo, rat (albino rats); conditions: five times per week for 24 days
Procedure: (C) Furthermore, the activity on tumours can be determined on the transplantable chondrosarcoma of the rat according to the following method. The solid tumour of a donor animal is finely minced and suspended in phosphate buffer/sodium chloride solution. 0.5 ml of the 30% tumour suspension is implanted subcutaneously into albino rats.
The transplanted rats are divided into test groups of in each case 8 animals. The test compounds are suspended in arachis oil and administered orally five times per week for 24 days. The tumours are excised and weighed on day 24. The results are expressed in the quotient C/T which is calculated as follows: [formula]

SMILES | Relative activity [1] | Inhibition of testosterone-stimulated sebum secretion [2] [%] | Diameter of the utriculus ([3]; 400 mg/kg p.o.) [μm] | Reduction (of the diameter of the utriculus) ([3]; 400 mg/kg p.o.) [%] | Average number of tumours per rat ([4]; 30 mg/kg p.o. daily in feed) | Average tumour volume per rat in mm^3 [% of controls] ([4]; 30 mg/kg p.o. daily in feed) | Rats with tumours ([4]; 30 mg/kg p.o. daily in feed) | Average number of tumours per rat ([4]; 90 mg/kg p.o. daily in feed) | Average tumour volume per rat in mm^3 [% of controls] ([4]; 90 mg/kg p.o. daily in feed) | Rats with tumours ([4]; 90 mg/kg p.o. daily in feed) | Quotient C/T of tumour weight of the untreated control animals and of the treated animals ([5]; 120 mg/kg p.o.) | Quotient C/T of tumour weight of the untreated control animals and of the treated animals ([5]; 40 mg/kg p.o.) | Diameter of the utriculus ([3]; 133 mg/kg p.o.) [μm] | Reduction (of the diameter of the utriculus) ([3]; 133 mg/kg p.o.) [%]
C/C(=C\c1ccc(F)cc1)c1ccc2c(c1)C(C)(C)CCC2(C)C [a, (E)-6-(p-fluoro-α-methylstyryl)-1,2,3,4-tetrahydro-1,1,4,4-tetramethylnaphthalene] | 0.87 | 67 | 117 | 21 | 47 % of controls | 22 % of controls | 72 % of controls | 42 % of controls | 22 % of controls | 69 % of controls |  |  |  | 
CC1=C(/C=C/C(C)=C/C=C/C(C)=C/C(=O)O)C(C)(C)CCC1 [all-Trans-retinoic acid, reference compound] | 1 |  |  |  |  |  |  |  |  |  |  |  |  | 
C/C(=C\c1ccc(Br)cc1)c1ccc2c(c1)C(C)(C)CCC2(C)C [b, (E)6-(p-Bromo-methylstyryl)-1,2,3,4-tetrahydro-1,1,4,4-tetramethylnaphthaene] | 0.77 | 65 | 131 | 19 | 87 % of controls | 90 % of controls | 106 % of controls | 87 % of controls | 43 % of controls | 99 % of controls | 1.6 |  |  | 
COc1ccc(/C=C(\C)c2ccc3c(c2)C(C)(C)CCC3(C)C)cc1 [c, 1,2,3 4-tetrahydro-6-[(E)-p-methoxy-α-methylstyryl]-1,1,4,4-tetramethylnaphthalene] | 1.04 |  | 61 | 51 | 56 % of controls | 78 % of controls | 92 % of controls | 43 % of controls | 32 % of controls | 85 % of controls | 24.0 | 2.0 | 91 | 27
C/C(=C\c1ccccc1)c1ccc2c(c1)C(C)(C)CC2(C)C [d, 1,1,3,3-tetramethyl-5-[(E)-α-methylstyryl]indane] |  |  |  |  |  |  |  |  |  |  |  |  | 125 | 27
C/C(=C\c1ccc(I)cc1)c1ccc2c(c1)C(C)(C)CCC2(C)C [e, (E)-6-[p-iodo-α-methylstyryl]-1,2,3,4-tetrahydro-1,1,4,4-tetramethylnaphthalene] |  | 71 |  |  |  |  |  |  |  |  |  |  |  | 
C/C(=C\c1ccc(Cl)cc1)c1ccc2c(c1)C(C)(C)CCC2(C)C [f, (E)-6-[p-chloro-α-methylstyryl]-1,2,3,4-tetrahydro-1,1,4,4-tetramethylnaphthalene] |  |  |  |  |  |  |  |  |  |  | 1.6 |  |  | 
CCCCCCCCc1cc2c(cc1C(C)=Cc1ccccc1)C(C)(C)CCC2(C)C [g, 1,2,3,4-tetrahydro-1,1,4,4-tetramethyl-6-(α-methylstyryl)-7-octylnaphthalene] |  | 71 |  |  |  |  |  |  |  |  |  |  |  | 
